# Measurements from ChEMBL document CHEMBL1148875, “Benzopyrans as selective estrogen receptor beta agonists (SERBAs). Part 2: structure-activity relationship studies on the benzopyran scaffold” (Bioorg Med Chem Lett, 2007).
# Experiments:
# [1] = target: Estrogen receptor beta (Homo sapiens, UniProt Q92731); assay: Binding affinity to human ERbeta
# [2] = target: T1, Estrogen receptor (Homo sapiens, UniProt P03372); assay: Binding affinity to human ERalpha
# T1 sequence (P03372 whole entry): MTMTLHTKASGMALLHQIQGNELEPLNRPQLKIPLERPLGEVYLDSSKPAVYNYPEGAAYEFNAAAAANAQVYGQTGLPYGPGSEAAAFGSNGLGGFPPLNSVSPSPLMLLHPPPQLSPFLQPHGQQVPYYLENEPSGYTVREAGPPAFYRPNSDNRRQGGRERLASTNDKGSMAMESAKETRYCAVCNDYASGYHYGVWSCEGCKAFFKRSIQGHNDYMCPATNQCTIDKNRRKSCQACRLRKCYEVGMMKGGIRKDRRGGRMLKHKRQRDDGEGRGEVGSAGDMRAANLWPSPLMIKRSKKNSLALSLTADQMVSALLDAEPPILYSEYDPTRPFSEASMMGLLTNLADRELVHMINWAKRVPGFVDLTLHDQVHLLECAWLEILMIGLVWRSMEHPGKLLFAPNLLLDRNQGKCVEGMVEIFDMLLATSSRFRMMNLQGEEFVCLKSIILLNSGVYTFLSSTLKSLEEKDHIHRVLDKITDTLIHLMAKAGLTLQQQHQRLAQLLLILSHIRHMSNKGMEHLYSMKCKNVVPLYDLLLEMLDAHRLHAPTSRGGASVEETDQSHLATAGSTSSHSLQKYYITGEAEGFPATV
# Chain of Estrogen receptor beta (Q92731 whole entry): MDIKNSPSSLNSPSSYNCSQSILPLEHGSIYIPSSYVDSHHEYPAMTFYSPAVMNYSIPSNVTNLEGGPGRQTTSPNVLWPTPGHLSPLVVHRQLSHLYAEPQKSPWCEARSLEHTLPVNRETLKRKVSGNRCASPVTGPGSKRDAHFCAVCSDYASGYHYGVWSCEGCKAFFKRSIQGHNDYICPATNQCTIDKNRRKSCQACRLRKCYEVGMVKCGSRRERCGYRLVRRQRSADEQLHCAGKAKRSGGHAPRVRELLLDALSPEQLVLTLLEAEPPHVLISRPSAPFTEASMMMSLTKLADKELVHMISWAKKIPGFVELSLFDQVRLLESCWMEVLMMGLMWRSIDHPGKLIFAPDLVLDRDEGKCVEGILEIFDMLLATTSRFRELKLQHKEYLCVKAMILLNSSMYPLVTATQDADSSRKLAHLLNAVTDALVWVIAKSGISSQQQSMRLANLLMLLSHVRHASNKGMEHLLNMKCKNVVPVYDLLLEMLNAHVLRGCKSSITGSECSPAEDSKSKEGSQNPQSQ
SMILES,Ki [1] [nM],Ki [2] [nM]
Oc1ccc([C@@H]2CCc3cc(O)ccc3O2)cc1,20.8,–
Oc1ccc([C@H]2Oc3ccc(O)cc3[C@H]3CCCCC[C@H]32)cc1,0.88,6.11
Oc1ccc([C@H]2Oc3ccc(O)cc3[C@H]3CCCC[C@H]32)cc1,0.63,2.88
Oc1cccc([C@H]2Oc3ccc(O)cc3[C@H]3CCC[C@H]32)c1,–,65
Oc1ccc([C@H]2Oc3ccccc3[C@H]3CCC[C@H]32)cc1,22.1,40
Oc1ccc([C@H]2Oc3cccc(O)c3[C@H]3CCC[C@H]32)cc1,0.66,0.35
Oc1ccc([C@H]2Oc3cc(O)ccc3[C@H]3CCC[C@H]32)cc1,18.9,41
Oc1ccc2c(c1)[C@H]1CCC[C@H]1[C@@H](c1ccccc1)O2,–,267
